In patent US9751878B2, “Tetrahydronaphthyridine somatostatin receptor 5 antagonists” (Takeda Pharmaceutical Company Limited, priority 2013, dated 2017):

Target: T1, human SSTR5 (Homo sapiens, UniProt P35346)
T1 construct: expressed in transfected cells
Assay: Evaluation of human SSTR5 antagonist activity using intracellular cAMP concentration as index
Type: cell-based
Conditions: 1 μM test compound; CHO (dhfr-) cells stably expressing human SSTR5; 0.1 nM somatostatin 28, 0.3 μM forskolin; cAMP HTRF; read-out: Inhibition rate against SSTR5 at 1 μM
Experimental: Evaluation of Human SSTR5 Antagonist Activity Using Intracellular cAMP Concentration as Index
The intracellular cAMP concentration was measured using HTRF cAMP dynamic 2 kit (Cisbio Bioassays). Each test compound diluted with an assay buffer (HBSS (Invitrogen Corp.) containing 5 mM HEPES (pH 7.5) (Invitrogen Corp.), 0.1% fatty-acid free BSA (Sigma-Aldrich Corp.), and 500 μM IBMX (Wako Pure Chemical Industries, Ltd.)) was added at a concentration of 2 μL/well to a 384-well white plate (Greiner Bio-One Co., Ltd.) to give the final concentration of 1 μM. A frozen stock of CHO (dhfr-) cells stably expressing the human SSTR5 gene (Accession No. NM_001053) was thawed in a thermostat bath of 37° C. and suspended in a subculture medium (MEM alpha (Wako Pure Chemical Industries, Ltd.), 10% dialyzed serum (Gemini Bio-Products), and 50 μg/mL gentamicin (Invitrogen Corp.). After centrifugation of the cell suspension, the cells were resuspended in an assay buffer and added at a concentration of 2 μL/well (about 4,000 cells/well) to the plate. The compound and the cells were incubated for 15 minutes, and then, an assay buffer containing 0.1 nM (final concentration) somatostatin 28 (Toray Research Center) and 0.3 μM (final concentration) forskolin (Wako Pure Chemical Industries, Ltd.) was added thereto at a concentration of 2 μL/well, followed by incubation at room temperature for 30 minutes. cAMP-d2 and anti-cAMP-cryptate were each added thereto at a concentration of 3 μL/well. The plate was left standing at room temperature for 60 minutes. Then, the fluorescence resonance energy transfer (FRET) intensity was measured using Multi-label reader Envision (PerkinElmer). The FRET intensity of the wells supplemented with the test compound group was converted to a cAMP concentration using a calibration curve prepared from the FRET intensity of a well group containing an assay buffer supplemented with an arbitrary concentration of cAMP. The inhibitory activity of each compound was calculated according to the following expression: Inhibitory activity (%)=(C−B)/(A−B)×100 A: cAMP concentration calculated from the wells supplemented with 0.3 μM forskolin B: cAMP concentration calculated from the wells supplemented with 0.3 μM forskolin and 0.1 nM somatostatin 28 C: cAMP concentration calculated from the wells supplemented with 0.3 μM forskolin, 0.1 nM somatostatin 28, and 1 μM test compound

T1 sequence (P35346 whole entry): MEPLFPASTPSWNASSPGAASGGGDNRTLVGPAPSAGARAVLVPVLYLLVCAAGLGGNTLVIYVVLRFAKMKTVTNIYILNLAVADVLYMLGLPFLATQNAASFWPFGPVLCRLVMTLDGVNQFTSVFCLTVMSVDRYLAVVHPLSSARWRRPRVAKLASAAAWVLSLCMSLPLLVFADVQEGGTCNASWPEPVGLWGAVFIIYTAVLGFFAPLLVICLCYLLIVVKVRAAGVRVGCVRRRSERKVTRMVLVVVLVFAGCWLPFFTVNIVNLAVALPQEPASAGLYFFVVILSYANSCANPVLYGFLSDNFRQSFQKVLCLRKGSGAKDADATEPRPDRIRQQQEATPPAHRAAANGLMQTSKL

SMILES	inhibition at 1 µM [%]
CCCc1nc2c(cc1C(=O)O)C(=O)N(C1CCN(Cc3cc(OCC)c(-c4ccc(F)cc4)c(OCC)c3)CC1)CC2 [Example 38, 6-(1-((2,6-Diethoxy-4′-fluorobiphenyl-4-yl)methyl)piperidin-4-yl)-5-oxo-2-propyl-5,6,7,8-tetrahydro-1,6-naphthyridine-3-carboxylic acid]	97
CCOc1cc(-c2ccc(F)cc2)c(C2CC2)cc1CN1CCC(N2CCc3nc(CC)c(C(=O)O)cc3C2=O)CC1 [Example 2, 6-(1-((2-Cyclopropyl-5-ethoxy-4′-fluorobiphenyl-4-yl)methyl)piperidin-4-yl)-2-ethyl-5-oxo-5,6,7,8-tetrahydro-1,6-naphthyridine-3-carboxylic acid]	86
CCCc1nc2c(cc1C(=O)O)C(=O)N(C1CCN(Cc3cc(C4CC4)c(C4CC4)cc3OCC)CC1)CC2 [Example 51, 6-(1-(4,5-Dicyclopropyl-2-ethoxybenzyl)piperidin-4-yl)-5-oxo-2-propyl-5,6,7,8-tetrahydro-1,6-naphthyridine-3-carboxylic acid]	103
CCOc1cc(-c2ccc(F)cc2)c(C2CC2)cc1CN1CCC(N2CCc3ccc(C(=O)O)nc3C2=O)CC1 [Example 31, 7-(1-((2-Cyclopropyl-5-ethoxy-4′-fluorobiphenyl-4-yl)methyl)piperidin-4-yl)-8-oxo-5,6,7,8-tetrahydro-1,7-naphthyridine-2-carboxylic acid]	118
CCCOc1cc(CN2CCC(N3CCc4nc(CCC)c(C(=O)O)cc4C3=O)CC2)cc(C2CC2)c1-c1ccc(F)cc1 [Example 61, 6-(1-((2-Cyclopropyl-4′-fluoro-6-propoxybiphenyl-4-yl)methyl)piperidin-4-yl)-5-oxo-2-propyl-5,6,7,8-tetrahydro-1,6-naphthyridine-3-carboxylic acid]	96
CCCc1nc2c(cc1C(=O)O)C(=O)N(C1CCN(Cc3cc(C4CC4)c(C4CCC4)cc3OCC)CC1)CC2 [Example 52, 6-(1-(4-Cyclobutyl-5-cyclopropyl-2-ethoxybenzyl)piperidin-4-yl)-5-oxo-2-propyl-5,6,7,8-tetrahydro-1,6-naphthyridine-3-carboxylic acid]	114
CCOc1cc(-c2ccc(F)cc2F)c(C2CC2)cc1CN1CCC(N2CCc3nc(COC)c(C(=O)O)cc3C2=O)CC1 [Example 48, 6-(1-((2-Cyclopropyl-5-ethoxy-2′,4′-difluorobiphenyl-4-yl)methyl)piperidin-4-yl)-2-(methoxymethyl)-5-oxo-5,6,7,8-tetrahydro-1,6-naphthyridine-3-carboxylic acid]	99
CCOc1cc(CN2CCC(N3CCc4nc(C(=O)O)ccc4C3=O)CC2)cc(OCC)c1-c1ccc(F)cc1 [Example 53, 6-(1-((2,6-Diethoxy-4′-fluorobiphenyl-4-yl)methyl)piperidin-4-yl)-5-oxo-5,6,7,8-tetrahydro-1,6-naphthyridine-2-carboxylic acid]	108
CCCc1nc2c(cc1C(=O)O)C(=O)N(C1CCN(Cc3cc(OCC)c(-c4ccc(F)c(F)c4)c(C4CC4)c3)CC1)CC2 [Example 62, 6-(1-((2-Cyclopropyl-6-ethoxy-3′,4′-difluorobiphenyl-4-yl)methyl)piperidin-4-yl)-5-oxo-2-propyl-5,6,7,8-tetrahydro-1,6-naphthyridine-3-carboxylic acid]	92
CCc1nc2c(cc1C(=O)O)C(=O)N(C1CCN(Cc3cc(C4CC4)c(-c4ccc(F)cc4)cc3OC(C)C)CC1)CC2 [Example 44, 6-(1-((2-Cyclopropyl-4′-fluoro-5-isopropoxybiphenyl-4-yl)methyl)piperidin-4-yl)-2-ethyl-5-oxo-5,6,7,8-tetrahydro-1,6-naphthyridine-3-carboxylic acid]	111
CCOc1cc(C2CCC2)c(C2CC2)cc1CN1CCC(N2CCc3ncc(C(=O)O)cc3C2=O)CC1 [Example 30, 6-(1-(4-Cyclobutyl-5-cyclopropyl-2-ethoxybenzyl)piperidin-4-yl)-5-oxo-5,6,7,8-tetrahydro-1,6-naphthyridine-3-carboxylic acid]	110
CCCc1nc2c(cc1C(=O)O)C(=O)N(C1CCN(Cc3cc(OCC)c(-c4ccc(F)cc4F)c(C4CC4)c3)CC1)CC2 [Example 64, 6-(1-((2-Cyclopropyl-6-ethoxy-2′,4′-difluorobiphenyl-4-yl)methyl)piperidin-4-yl)-5-oxo-2-propyl-5,6,7,8-tetrahydro-1,6-naphthyridine-3-carboxylic acid]	89
CCOc1cc(CN2CCC(N3CCc4nc(C)c(C(=O)O)cc4C3=O)CC2)cc(C2CC2)c1-c1ccc(F)c(F)c1 [Example 8, 6-(1-((2-Cyclopropyl-6-ethoxy-3′,4′-difluorobiphenyl-4-yl)methyl)piperidin-4-yl)-2-methyl-5-oxo-5,6,7,8-tetrahydro-1,6-naphthyridine-3-carboxylic acid]	97
CCOc1cc(-c2ccc(F)cc2)c(C2CC2)cc1CN1CCC(N2CCc3nc(C)c(C(=O)O)cc3C2=O)CC1 [Example 5, 6-(1-((2-Cyclopropyl-5-ethoxy-4′-fluorobiphenyl-4-yl)methyl)piperidin-4-yl)-2-methyl-5-oxo-5,6,7,8-tetrahydro-1,6-naphthyridine-3-carboxylic acid]	132
CCOc1cc(-c2ccc(F)cc2)c(C2CC2)cc1CN1CCC(N2CCc3nc(C(=O)O)ccc3C2=O)CC1 [Example 54, 6-(1-((2-Cyclopropyl-5-ethoxy-4′-fluorobiphenyl-4-yl)methyl)piperidin-4-yl)-5-oxo-5,6,7,8-tetrahydro-1,6-naphthyridine-2-carboxylic acid]	123
CCOc1cc(-c2ccc(F)cc2)c(C2CC2)cc1CN1CCC(N2CCc3nc(C4CC4)c(C(=O)O)cc3C2=O)CC1 [Example 3, 2-Cyclopropyl-6-(1-((2-cyclopropyl-5-ethoxy-4′-fluorobiphenyl-4-yl)methyl)piperidin-4-yl)-5-oxo-5,6,7,8-tetrahydro-1,6-naphthyridine-3-carboxylic acid]	115
CCOc1cc(CN2CCC(N3CCc4ncc(C(=O)O)cc4C3=O)C2)cc(OCC)c1-c1ccc(F)cc1 (stereo not shown) [Example 34, 6-(1-((2,6-Diethoxy-4′-fluorobiphenyl-4-yl)methyl)pyrrolidin-3-yl)-5-oxo-5,6,7,8-tetrahydro-1,6-naphthyridine-3-carboxylic acid]	102
CCOc1cc(-c2ccc(F)cc2)c(C2CC2)cc1CN1CCC(N2CCc3nc(COC)c(C(=O)O)cc3C2=O)CC1 [Example 47, 6-(1-((2-Cyclopropyl-5-ethoxy-4′-fluorobiphenyl-4-yl)methyl)piperidin-4-yl)-2-(methoxymethyl)-5-oxo-5,6,7,8-tetrahydro-1,6-naphthyridine-3-carboxylic acid]	106
CCOc1cc(-c2ccc(F)cc2)c(C2CC2)cc1CN1CCC(N2CCc3nc(C(C)C)c(C(=O)O)cc3C2=O)CC1 [Example 49, 6-(1-((2-Cyclopropyl-5-ethoxy-4′-fluorobiphenyl-4-yl)methyl)piperidin-4-yl)-2-isopropyl-5-oxo-5,6,7,8-tetrahydro-1,6-naphthyridine-3-carboxylic acid]	91
CCOc1nc(-c2ccc(F)cc2)c(C2CC2)cc1CN1CCC(N2CCc3nc(CC)c(C(=O)O)cc3C2=O)CC1 [Example 33, 6-(1-((5-Cyclopropyl-2-ethoxy-6-(4-fluorophenyl)pyridin-3-yl)methyl)piperidin-4-yl)-2-ethyl-5-oxo-5,6,7,8-tetrahydro-1,6-naphthyridine-3-carboxylic acid]	123
CCOc1cc(CN2CCC(N3CCc4nc(C)c(C(=O)O)cc4C3=O)CC2)cc(C2CC2)c1-c1ccc(F)cc1 [Example 1, 6-(1-((2-Cyclopropyl-6-ethoxy-4′-fluorobiphenyl-4-yl)methyl)piperidin-4-yl)-2-methyl-5-oxo-5,6,7,8-tetrahydro-1,6-naphthyridine-3-carboxylic acid]	91
CCCc1nc2c(cc1C(=O)O)C(=O)N(C1CCN(Cc3cc(C4CC4)c(C4CCC4)cc3OC(C)C)CC1)CC2 [Example 41, 6-(1-(4-Cyclobutyl-5-cyclopropyl-2-isopropoxybenzyl)piperidin-4-yl)-5-oxo-2-propyl-5,6,7,8-tetrahydro-1,6-naphthyridine-3-carboxylic acid]	99
